Test results taken from ChEMBL document CHEMBL1153181, “SAR of N-phenyl piperidine based oral integrin alpha5beta1 antagonists” (Bioorg Med Chem Lett, 2010).

Experiments:
[1] = target: T1, Integrin alpha-5/beta-1 (Homo sapiens, UniProt P05556+P08648); experiment: Inhibition of integrin alpha5beta1 receptor by ELISA; assay type: protein-complex assay
[2] = target: Integrin alpha-V/beta-3 (Homo sapiens, UniProt P05106+P06756); experiment: Inhibition of integrin […] receptor by ELISA; assay type: protein-complex assay
Integrin alpha-V/beta-3, sequence (P05106 27-788 limits assumed): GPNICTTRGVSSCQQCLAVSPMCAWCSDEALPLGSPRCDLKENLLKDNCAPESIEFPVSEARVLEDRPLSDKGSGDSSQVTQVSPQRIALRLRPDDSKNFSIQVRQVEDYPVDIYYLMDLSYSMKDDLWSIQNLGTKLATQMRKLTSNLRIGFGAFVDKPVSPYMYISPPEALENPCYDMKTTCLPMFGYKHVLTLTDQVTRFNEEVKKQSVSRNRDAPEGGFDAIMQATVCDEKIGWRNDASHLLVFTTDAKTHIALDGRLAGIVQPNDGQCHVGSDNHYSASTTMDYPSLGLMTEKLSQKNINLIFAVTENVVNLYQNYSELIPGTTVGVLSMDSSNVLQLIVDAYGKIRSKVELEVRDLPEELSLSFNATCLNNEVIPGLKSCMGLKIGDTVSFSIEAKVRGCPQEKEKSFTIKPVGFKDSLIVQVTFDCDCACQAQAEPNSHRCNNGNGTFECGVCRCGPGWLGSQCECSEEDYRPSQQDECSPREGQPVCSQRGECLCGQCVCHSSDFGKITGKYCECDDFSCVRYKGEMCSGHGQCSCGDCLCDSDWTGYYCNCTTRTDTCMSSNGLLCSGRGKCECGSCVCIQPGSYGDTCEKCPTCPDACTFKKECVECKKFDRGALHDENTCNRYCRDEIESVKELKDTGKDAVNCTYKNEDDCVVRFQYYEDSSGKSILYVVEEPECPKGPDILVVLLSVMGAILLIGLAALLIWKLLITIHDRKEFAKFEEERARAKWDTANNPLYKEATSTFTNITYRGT
Integrin alpha-V/beta-3, sequence (P06756 31-889 limits assumed): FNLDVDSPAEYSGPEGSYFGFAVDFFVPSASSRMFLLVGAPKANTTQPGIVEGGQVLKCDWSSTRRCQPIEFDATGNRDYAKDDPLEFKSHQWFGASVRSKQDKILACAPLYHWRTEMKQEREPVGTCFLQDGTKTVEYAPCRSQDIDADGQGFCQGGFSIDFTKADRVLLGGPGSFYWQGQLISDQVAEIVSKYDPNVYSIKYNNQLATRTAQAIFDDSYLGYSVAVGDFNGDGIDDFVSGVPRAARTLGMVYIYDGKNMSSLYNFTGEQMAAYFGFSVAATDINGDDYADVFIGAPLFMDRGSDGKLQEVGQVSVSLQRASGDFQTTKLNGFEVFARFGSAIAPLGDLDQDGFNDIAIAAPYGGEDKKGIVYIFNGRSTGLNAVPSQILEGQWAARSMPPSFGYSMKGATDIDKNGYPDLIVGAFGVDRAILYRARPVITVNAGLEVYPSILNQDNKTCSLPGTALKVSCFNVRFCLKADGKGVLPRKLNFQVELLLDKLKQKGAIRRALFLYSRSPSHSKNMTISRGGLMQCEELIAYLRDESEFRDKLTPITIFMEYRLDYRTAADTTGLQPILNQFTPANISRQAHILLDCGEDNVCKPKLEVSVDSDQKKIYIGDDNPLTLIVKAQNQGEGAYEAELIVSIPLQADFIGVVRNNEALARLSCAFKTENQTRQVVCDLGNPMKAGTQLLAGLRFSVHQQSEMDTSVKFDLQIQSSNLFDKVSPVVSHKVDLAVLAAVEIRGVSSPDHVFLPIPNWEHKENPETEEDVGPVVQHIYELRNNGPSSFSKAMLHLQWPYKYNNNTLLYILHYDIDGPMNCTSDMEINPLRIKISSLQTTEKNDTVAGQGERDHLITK
Integrin alpha-V/beta-3, sequence (P06756 891-1048 limits assumed): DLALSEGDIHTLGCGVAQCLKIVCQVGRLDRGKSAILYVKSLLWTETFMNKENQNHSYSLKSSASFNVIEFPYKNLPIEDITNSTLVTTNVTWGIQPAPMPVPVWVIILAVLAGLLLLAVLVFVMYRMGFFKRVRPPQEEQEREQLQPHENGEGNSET

[3] = target: Integrin alpha-V/beta-5 (Homo sapiens, UniProt P06756+P18084); experiment: Inhibition of integrin […] receptor by ELISA; assay type: protein-complex assay
Integrin alpha-V/beta-5, sequence (P06756 31-889 limits assumed): as the sequence (P06756 31-889 limits assumed) above
Integrin alpha-V/beta-5, sequence (P06756 891-1048 limits assumed): as the sequence (P06756 891-1048 limits assumed) above
Integrin alpha-V/beta-5, sequence (P18084 24-799 limits assumed): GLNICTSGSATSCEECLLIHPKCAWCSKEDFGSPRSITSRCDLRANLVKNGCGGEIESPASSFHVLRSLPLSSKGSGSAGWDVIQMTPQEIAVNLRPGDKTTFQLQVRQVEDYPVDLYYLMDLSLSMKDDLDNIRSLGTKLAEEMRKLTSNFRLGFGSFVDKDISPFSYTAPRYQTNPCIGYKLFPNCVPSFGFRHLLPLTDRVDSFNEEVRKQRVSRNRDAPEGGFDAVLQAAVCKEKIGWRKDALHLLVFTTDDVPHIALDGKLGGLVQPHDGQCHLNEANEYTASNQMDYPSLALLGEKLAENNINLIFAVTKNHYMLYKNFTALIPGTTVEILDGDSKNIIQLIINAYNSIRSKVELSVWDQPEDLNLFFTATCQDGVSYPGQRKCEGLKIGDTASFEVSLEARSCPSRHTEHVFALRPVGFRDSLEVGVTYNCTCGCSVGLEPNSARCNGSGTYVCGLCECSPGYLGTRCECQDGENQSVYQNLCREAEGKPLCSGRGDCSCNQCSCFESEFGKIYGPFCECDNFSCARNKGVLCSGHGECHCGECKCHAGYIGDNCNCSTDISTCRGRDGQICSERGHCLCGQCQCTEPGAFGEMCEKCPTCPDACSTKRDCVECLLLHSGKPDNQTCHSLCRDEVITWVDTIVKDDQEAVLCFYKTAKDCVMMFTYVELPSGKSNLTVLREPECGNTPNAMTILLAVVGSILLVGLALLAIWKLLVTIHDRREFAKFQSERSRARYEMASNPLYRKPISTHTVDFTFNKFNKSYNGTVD

[4] = target: Integrin alpha-IIb/beta-3 (Homo sapiens, UniProt P05106+P08514); experiment: Inhibition of integrin alpha2bbeta3 receptor by ELISA; assay type: protein-complex assay
Integrin alpha-IIb/beta-3, sequence (P05106 27-788 limits assumed): as the sequence (P05106 27-788 limits assumed) above
Integrin alpha-IIb/beta-3, sequence (P08514 32-887 limits assumed): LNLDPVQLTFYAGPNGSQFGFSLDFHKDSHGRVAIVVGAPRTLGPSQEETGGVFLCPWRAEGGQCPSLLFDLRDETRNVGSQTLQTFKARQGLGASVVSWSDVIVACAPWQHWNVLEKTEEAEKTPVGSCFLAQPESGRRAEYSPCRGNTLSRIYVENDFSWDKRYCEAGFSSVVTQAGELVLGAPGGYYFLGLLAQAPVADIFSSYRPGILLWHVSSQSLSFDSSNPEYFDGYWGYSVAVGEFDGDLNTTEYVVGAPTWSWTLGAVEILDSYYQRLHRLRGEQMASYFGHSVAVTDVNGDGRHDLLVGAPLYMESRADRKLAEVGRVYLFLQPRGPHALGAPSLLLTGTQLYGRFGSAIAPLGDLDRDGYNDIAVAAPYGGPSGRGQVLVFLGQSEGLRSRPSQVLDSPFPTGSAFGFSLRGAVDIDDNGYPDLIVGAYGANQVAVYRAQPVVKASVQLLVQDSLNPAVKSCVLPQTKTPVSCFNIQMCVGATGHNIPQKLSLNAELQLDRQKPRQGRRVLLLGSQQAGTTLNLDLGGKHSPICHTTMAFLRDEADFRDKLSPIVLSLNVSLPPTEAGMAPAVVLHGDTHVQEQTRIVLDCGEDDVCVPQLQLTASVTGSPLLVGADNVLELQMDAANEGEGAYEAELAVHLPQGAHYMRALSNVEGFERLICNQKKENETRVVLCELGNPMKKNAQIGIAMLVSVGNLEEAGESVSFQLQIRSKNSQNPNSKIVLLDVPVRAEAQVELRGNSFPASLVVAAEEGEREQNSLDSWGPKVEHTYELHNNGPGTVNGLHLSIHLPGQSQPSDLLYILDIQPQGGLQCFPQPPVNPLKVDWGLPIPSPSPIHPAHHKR
Integrin alpha-IIb/beta-3, sequence (P08514 891-1039 limits assumed): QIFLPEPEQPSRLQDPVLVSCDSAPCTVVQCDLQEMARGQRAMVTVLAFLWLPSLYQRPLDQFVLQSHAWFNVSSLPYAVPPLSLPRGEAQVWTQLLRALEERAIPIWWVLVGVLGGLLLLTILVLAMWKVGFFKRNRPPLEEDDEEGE

[5] = target: T1, Integrin alpha-5/beta-1; experiment: Inhibition of integrin alpha5beta1 receptor-mediated HEK293 cell adhesion; assay type: cell-based
[6] = Metabolic stability in human microsomes assessed as compound remaining at 1 uM after 1 hr; assay type: ADME, Microsome; conditions: read-out: Stability
[7] = Systemic clearance in Beagle dog at 10 mg/kg, iv administered as bolus dose; assay type: ADME, organism-based, Canis lupus familiaris; design: dose 10 mg/kg, route intravenous; conditions: in vivo
[8] = system: Canis familiaris; experiment: Hepatic blood flow in Beagle dog at 10 mg/kg, iv administered as bolus dose; assay type: ADME, organism-based, Canis lupus familiaris, Liver; design: dose 10 mg/kg, route intravenous; conditions: in vivo
[9] = Elimination half life in Beagle dog at 10 mg/kg, iv administered as bolus dose; assay type: ADME, organism-based, Canis lupus familiaris; design: dose 10 mg/kg, route intravenous; conditions: in vivo, read-out: beta t1/2
[10] = Oral bioavailability in Beagle dog at 10 mg/kg administered as bolus dose; assay type: ADME, organism-based, Canis lupus familiaris; conditions: in vivo
[11] = Dissociation constant, pKa of the compound; assay type: physicochemical
[12] = Total body clearance in rat at 1 mg/kg, iv; assay type: ADME, organism-based; design: dose 1 mg/kg, route intravenous; conditions: in vivo
[13] = Oral bioavailability in rat at 10 mg/kg, po; assay type: ADME, organism-based; conditions: in vivo
[14] = Metabolic stability in rat microsomes assessed as compound remaining at 1 uM after 1 hr; assay type: ADME, Microsome; conditions: read-out: Stability

IC50 [1] | IC50 [2] | IC50 [3] | IC50 [4] | IC50 [5] | remaining at 1 h, 1 µM [6] | clearance [7] | LBF [8] | half-life [9] | bioavailability [10] | pKa [11] | clearance [12] | bioavailability [13] | remaining at 1 h, 1 µM [14] | SMILES
0.002 µM | 1.05 µM | 11.7 µM | 71.7 µM | 0.076 µM | 105% |  |  |  |  |  |  |  |  | CCc1cc(F)cc(C)c1C(=O)NC(Cc1ccc(N2CCC(CNc3ccccn3)CC2)cc1)C(=O)O (stereo not given)
0.0009 µM | 0.614 µM | 12.4 µM | 121 µM | 0.021 µM |  | 0.66 L/h/kg | 37% | 3.58 h | 11% |  |  |  |  | CCc1cc(F)cc(C)c1C(=O)N[C@@H](Cc1ccc(N2CCC(CNc3ccccn3)CC2)cc1)C(=O)O
0.351 µM | 16.6 µM | 15.6 µM | 159 µM | 6.91 µM |  |  |  |  |  |  |  |  |  | CCc1cc(F)cc(C)c1C(=O)N[C@H](Cc1ccc(N2CCC(CNc3ccccn3)CC2)cc1)C(=O)O
0.00092 µM | 0.089 µM | 3.54 µM |  | 0.034 µM |  |  |  |  |  | 7.7 | 6.6 L/h/kg | 6% | 62% | COc1ccnc(NCC2CCN(c3ccc(CC(NC(=O)c4c(C)cc(C)cc4C)C(=O)O)cc3)CC2)c1 (stereo not given)
0.0016 µM | 0.239 µM | 1.87 µM | 77.7 µM |  | 59% |  |  |  |  |  |  |  |  | Cc1cccc(C)c1C(=O)NC(Cc1ccc(N2CCC(CNc3ccccn3)CC2)cc1)C(=O)O (stereo not given)
0.0022 µM | 0.648 µM | 11.5 µM | 87.2 µM |  | 52% |  |  |  |  |  |  |  |  | CCc1cccc(C)c1C(=O)NC(Cc1ccc(N2CCC(CNc3ccccn3)CC2)cc1)C(=O)O (stereo not given)
0.0027 µM | 0.402 µM | 8.29 µM | 105 µM |  | 69% |  |  |  |  |  |  |  |  | Cc1cc(F)cc(C)c1C(=O)NC(Cc1ccc(N2CCC(CNc3ccccn3)CC2)cc1)C(=O)O (stereo not given)
0.234 µM | 0.0134 µM | 3.32 µM | 76.7 µM |  |  |  |  |  |  |  |  |  |  | O=C(O)[C@H](Cc1ccc(N2CCC(CNc3ccccn3)CC2)cc1)N1Cc2ccccc2C1=O
0.0021 µM | 0.642 µM | 15 µM | 40.2 µM | 0.198 µM |  |  |  |  |  | 7 | 0.96 L/h/kg | 24% | 85% | Cc1cc(C)c(C(=O)NC(Cc2ccc(N3CCC(CNc4ccccn4)CC3)cc2)C(=O)O)c(C)c1 (stereo not given)
 |  | 10.7 µM | 23.4 µM | 0.069 µM |  |  |  |  |  | 7.5 |  |  | 77% | Cc1ccnc(NCC2CCN(c3ccc(CC(NC(=O)c4c(C)cc(C)cc4C)C(=O)O)cc3)CC2)c1 (stereo not given)
0.07 µM | 0.0043 µM | 0.0321 µM | 14.8 µM |  |  |  |  |  |  |  |  |  |  | O=C(N[C@@H](Cc1ccc(N2CCC(CNc3ccccn3)CC2)cc1)C(=O)O)c1ccccc1
